Experimental data taken from article PMC10446491 (Frontiers in Immunology, 2023).

System: lysis of EA
Assay: CH50 test of C5 proteins in 1.5% C5-depleted human sera with EA
Format: cell-based
Details: 1.5% C5-depleted human sera supplemented with C5 protein
Protocol: Recombinant human C5 R885 variants (rhC5 R885C and rhC5 R885H) were prepared in-house ( Supplementary Material ). Their activities on complement activation were examined by the CH50 test using 1.5% C5-depleted human sera supplemented with C5 R885 variants. […] Other procedures and data analysis are described in Section 2.3.
Supplementary Figure 2. Determination of CH50 of the hemolysis by C5 from different sources. Wild type C5 purified from human sera (hC5 compTech) (Complement Technologies), recombinant C5 wild type (rhC5 WT), recombinant C5 variant R885C (rhC5 R885C), and recombinant C5 variant R885H (rhC5 R885H). Various concentrations of protein C5 were added to 1.5% C5-depleted human sera followed by incubation with EA (0.5×) in GVB++ buffer. All data were from 2 plates (duplicate in each plate).

Work on “rhC5 R885H: Recombinant human C5 variant with single mutation R885H, prepared in-house” yielded a CH50 of 1.1 nM.
“rhC5 R885C: Recombinant human C5 variant with single mutation R885C, prepared in-house” gave a CH50 of 5.2 nM.
“C5 wt: Wild-type human C5, purified from human sera or recombinant (rhC5 wt)” showed a CH50 of 0.2 to 0.3 nM.
